Source: PMC7160362, “A Polyamine-Based Dinitro-Naphthalimide Conjugate as Substrates for Polyamine Transporters Preferentially Accumulates in Cancer Cells and Minimizes Side Effects in vitro and in vivo” (Frontiers in Chemistry, 2020)

What was measured:
Assay type in all cases: cell-based
[1] = system: MCF-7 cells (breast carcinoma); experiment: MTT cytotoxicity assay
Description: (§1) We incubated hepatic carcinoma (Snu-368 and Snu-739), breast carcinoma (MDA-MB-231 and MCF-7), cisplatin-sensitive lung cancer cells A549, and cisplatin-resistant lung cancer cells A549cisR in 96-well plates in a 5% CO2 atmosphere at 37°C for 24 h (5,000 cells/well). After adding drugs in freshly prepared culture medium (100 μl) and incubating for another 48 h, we added 20 μl MTT (5 mg/ml) and incubated for another 3 h. At last, after the medium was removed, 150 μl DMSO was added. By using a Bio-Rad 680 microplate reader, the absorbance was measured at 570 nm and the IC50 values were calculated using the GraphPad Prism software based on three parallel experiments.
(§2) In vitro assays were firstly conducted to evaluate the inhibitory effect of polyamine-based naphthalimide conjugates 5a-5c, 7a-7b, and 11a-11b on six cancer cell lines, namely, Snu-368 and Sun-739 (hepatoma cell line), MCF-7 (breast carcinoma), MDA-MB-231 (triple negative breast cancer), cisplatin-sensitive lung cancer A549, and resistant A549cisR cells by using traditional MTT tests. Two classic antitumor agents in clinic trials, amonafide and cisplatin, were chosen as the reference drugs (Table 1). The preliminary structure–activity relationship (SAR) can be obtained from the in vitro biological results.

[2] = system: MDA-MB-231 cells (triple negative breast cancer); experiment: MTT cytotoxicity assay; conditions: MDA-MB-231
Description: as §1, §2

[3] = system: Snu-368 cells (hepatic carcinoma); experiment: MTT cytotoxicity assay
Description: as §1, §2

[4] = system: Snu-739 cells (hepatic carcinoma); experiment: MTT cytotoxicity assay
Description: as §1, §2

[5] = system: cisplatin-resistant lung cancer cells A549cisR; experiment: MTT cytotoxicity assay
Description: as §1, §2

[6] = system: cisplatin-sensitive lung cancer cells A549; experiment: MTT cytotoxicity assay; conditions: A549
Description: as §1, §2

[7] = system: HL-7702 (normal liver cell); experiment: MTT cytotoxicity on matched normal cells
Description: as §1
The selectivity for cancer cells over normal healthy cells is important for ideal anticancer agents, thereby mitigating undesired toxic side effects associated with chemotherapy. The selectivity of polyamine-based dinitro-naphthalimide conjugates 5a-5c was evaluated by Snu-368 and Snu-739 (hepatic carcinoma), and the matched normal cells HL-7702 (normal liver cell). Moreover, dinitro-naphthalimide conjugates 5a-5c (SI 1.94–7.47) show lower cytotoxicity in normal cells.

Snu-739 cells = experiment: Annexin V-FITC/PI staining, flow cytometry
Description: Annexin V-FITC/PI staining was used to detect the apoptosis of Snu-739 cells by FCM (flow cytometry). Firstly, we plated the cells in six-well plates (1 × 10^5 cells/well). 5c 10 μM and amonafide 10 μM were added and incubated for 24 h. And then we harvested the cells and washed three times with PBS. Then the protocol was stained according to our previous report (Wang et al., [2012]; Li et al., [2016], [2018]; Dai et al., [2017a]; Ma et al., [2017a],[b]; Ma et al., [2018]; Liu et al., [2019]) and was performed by FCM (BD Biosciences, San Jose, CA, USA).

p53 in Snu-739 cells = experiment: Western blot of p53; conditions: Snu-739, 24 h
Description: We performed western blot analysis to determine the contents of p53 after treatment by 5c for 5, 10, and 15 μM for 24 h. After washing three times with PBS, we harvested and centrifuged the cells, which were lysed with a RIPA buffer (Beyotime, China). The total contents of protein were determined by a BCA assay kit (Beyotime, China). At 100°C for 10 min, the total lysates were denatured in a 5 × SDS-loading buffer. Equal amounts of total proteins were separated by 12% SDS-PAGE. Dried skimmed milk (5%) was used to block the separated protein in Tris Buffered Saline Tween (TBST) at room temperature for 1 h. And then the corresponding primary antibodies and the appropriate HRP-conjugated secondary antibody were used to incubate with the separated protein. By ECL plus reagents (Beyotime, Jiangsu, China), we detected the expression of p53.

[8] = system: polyamine oxidase (PAO) in Snu-368 cells; experiment: PAO assay kit; conditions: Snu-368, 10 μM, 24 h
Text: (§3) We measured the total PAO level using a PAO assay kit according to our previous report (Liu et al., [2019]) (Hepeng Biotechnology, Cat. HEPENGBIO156).

[9] = system: polyamine oxidase (PAO) in Snu-739 cells; experiment: PAO assay kit; conditions: Snu-739, 10 μM, 24 h
Text: as §3

[10] = system: Put, Spd, and Spm in Snu-368 cells; experiment: Polyamine contents assay (HPLC, dansyl derivatives); conditions: Snu-368, 24 h
Text: (§4) According to our previous report (Wang et al., [2012]; Li et al., [2016], [2018]; Dai et al., [2017a]; Ma et al., [2017a],[b], [2018]; Liu et al., [2019]), the contents of Put, Spd, and Spm were detected by a G1321A fluorescence detector in both Snu-368 and Snu-739 cells. Cells were harvested and dansyl chloride was used as the derivation reagent. After converting to the corresponding dansyl derivatives, Put, Spd, and Spm were separated by using High Performance Liquid Chromatogra (HPLC) (Agilent 1260, Agilent Technologies, USA) with a C18 chromatographic column (25 × 4.6 mm, 5 μm). As the internal standard substance, 1,6-diaminohexane was used. The excitation and emission wavelengths were 340 and 515 nm, separately. The mobile phase was methanol–water from 65:35 to 100:0 within 30 min.

[11] = system: Put, Spd, and Spm in Snu-739 cells; experiment: as above; conditions: Snu-739, 24 h
Text: as §4

Compound: O=C1c2cc([N+](=O)[O-])cc3cc([N+](=O)[O-])cc(c23)C(=O)N1CCCCNCCCNC1CC1 [5c]
- IC50 ([1]; Homo sapiens, MCF7, MTT, 48 h): 1.35 ± 0.15 µM
- FI (fold increase) IC50(amonafide)/IC50(5c) ([1]; MCF-7): 4.36
- FI (fold increase) IC50(cisplatin)/IC50(5c) ([1]; MCF-7): 7.11
- IC50 ([2]; Homo sapiens, MTT, 48 h): 1.33 ± 0.12 µM
- FI (fold increase) IC50(amonafide)/IC50(5c) [2]: 11.20
- FI (fold increase) IC50(cisplatin)/IC50(5c) [2]: 12.02
- IC50 ([3]; MTT, 48 h): 1.09 ± 0.1 µM
- FI (fold increase) IC50(amonafide)/IC50(5c) ([3]; Snu-368): 12.83
- FI (fold increase) IC50(cisplatin)/IC50(5c) ([3]; Snu-368): 15.02
- IC50 ([4]; SNU-739, MTT, 48 h): 0.76 ± 0.05 µM
- FI (fold increase) IC50(amonafide)/IC50(5c) ([4]; Snu-739): 17.08
- FI (fold increase) IC50(cisplatin)/IC50(5c) ([4]; Snu-739): 13.18
- FI (fold increase) IC50(amonafide)/IC50(5c) ([5]; A549cisR): 13.23
- FI (fold increase) IC50(cisplatin)/IC50(5c) ([5]; A549cisR): 48.63
- RF (resistance factor) ([5]; IC50 in A549cisR cells/IC50 in A549 cells): 0.43
- IC50 ([5]; MTT, 48 h): 0.83 ± 0.08 µM
- FI (fold increase) amonafide/5c in RF column ([5]; ratio of RF values): 3.70
- FI (fold increase) IC50(amonafide)/IC50(5c) [6]: 3.59
- FI (fold increase) IC50(cisplatin)/IC50(5c) [6]: 5.73
- IC50 ([6]; Homo sapiens, MTT, 48 h): 1.92 ± 0.23 µM
- SI (selectivity index) IC50 in HL-7702/IC50 in Snu-368 [7]: 5.21
- SI (selectivity index) IC50 in HL-7702/IC50 in Snu-739 [7]: 7.47
- SI (selectivity index), range over Snu-368 and Snu-739 ([7]; HL-7702 versus Snu-368 and Snu-739): 5.21–7.47
- IC50 ([7]; Homo sapiens, L02, normal liver cell, read-out: IC50 HL-7702): 5.68 ± 0.83 µM
- early apoptotic cells (Snu-739 cells; 10 μM, 24 h): 35.00%
- late apoptotic cells (Snu-739 cells; 10 μM, 24 h): 38.50%
- apoptotic cells (Snu-739 cells; total of early and late): 73.50%
- p53 protein expression (p53 in Snu-739 cells): upregulated
- relative PAO activity versus control group [8]: 1.5–2 folds
- relative PAO activity versus control group [9]: 1.5–2 folds
- contents of Put, Spd, and Spm versus control group [10]: downregulated
- contents of Put, Spd, and Spm versus control group [11]: downregulated
